{
  "source": "patent US5830500A",
  "about": "“Low dose fluoxetine tablet” (Pentech Pharmaceuticals, Inc., priority 1996, dated 1998)",
  "origin": "cited, not measured here",
  "test_system": "premature ejaculation",
  "conditions": "reported",
  "data": [
    {"smiles": "CN(C)CCCN1c2ccccc2CCc2ccc(Cl)cc21", "note": "[clomipramine]", "values": [
      {"measurement": "side effects", "value": "weight gain, sedation, and anticholinergic effects"},
      {"measurement": "success in managing premature ejaculation", "setting": "informal use by a few practitioners", "value": "Some limited success"}
    ]}
  ]
}
